Measurements from US7868135B2, “Compositions of lipopeptide antibiotic derivatives and methods of use thereof” (priority 2003, dated 2011).
Where two headings read alike, the source gives them in different places. Blank lines part the entries; values can stand above or below the compound they belong to.

How the values were obtained:
[1] = system: Staphylococcus aureus SAU0065 (MRSA); experiment: Broad spectrum MIC, Table 17/18 column H; type: cell-based; conditions: condition H of Table 17, in µg/mL
Experimental: (§1) The antimicrobial lipopeptide derivatives described herein were tested for antimicrobial activity against Gram-positive bacteria as follows. The minimum inhibitory concentrations (MIC) of the antimicrobial lipopeptide derivatives of the invention were determined using NCCLS guidelines M7-A6 (2003) with a slight modification in that doubling serial dilutions were used to dilute the test compounds. The broth phase microdilution method was used. Isolated colonies of Staphylococcus aureus (MSSA) from an 18-24 hour blood agar plate cultures were used to inoculate cation adjusted Mueller-Hinton broth (CAMHB) supplemented with 0.625 mM calcium. […] A negative control containing media alone and a positive growth control containing bacteria with media alone were also included. MICs were determined after incubating the plates at about 37° C. for 24 hours. […] In Tables 1 to 16, R is the core cyclic peptide of amphomycin or aspartocin, which can be in the form of a β-isomer, an anhydro, a dianhydro, or any combination thereof. […] Furthermore, a person of skill in the art will appreciate that all the pounds, or groups of compounds, derived from the various combinations of and substituents shown in Tables 1 to 16, are disclosed by the present the same extent as if each compound or group of compounds was set forth individually.
(§2) Antimicrobial lipopeptide derivatives of the instant invention were tested for antimicrobial activity against Gram-positive bacteria in a variety of media conditions. The […] (MIC) of the antimicrobial lipopeptide derivatives were determined as described in Example 376. The various media used are described in Table 17.

[2] = system: Staphylococcus epidermidis SEP0375 (MRSE); experiment: Broad spectrum MIC, Table 17/18 column I; type: cell-based; conditions: condition I of Table 17, in µg/mL
Experimental: as §1, §2

[3] = system: Enterococcus faecalis EFS0004 (VSE); experiment: Broad spectrum MIC, Table 17/18 B, C, D (CAMHB; + 0.625 mM calcium; + calcium and 30% bovine serum); type: cell-based; conditions: in µg/mL; for MIC, media condition B: condition B: CAMHB; for MIC, media condition C: condition C: + 0.625 mM calcium; for MIC, media condition D: condition D: + calcium and 30% bovine serum
Experimental: as §1, §2

[4] = system: Streptococcus pneumoniae SPN0002 (PISP); experiment: Broad spectrum MIC, Table 17/18 column J; type: cell-based; conditions: condition J of Table 17, in µg/mL
Experimental: as §1, §2

[5] = system: Streptococcus pneumoniae SPN0023 (PRSP); experiment: Broad spectrum MIC, Table 17/18 column K; type: cell-based; conditions: condition K of Table 17, in µg/mL
Experimental: as §1, §2

[6] = system: Staphylococcus aureus SAU0017 (MSSA); experiment: Broad spectrum MIC, Table 17/18 columns E, F (+ 0.625 mM calcium; + calcium and 30% bovine serum); type: cell-based; conditions: in µg/mL; for MIC, media condition E: condition E: + 0.625 mM calcium; for MIC, media condition F: condition F: + calcium and 30% bovine serum
Experimental: as §1, §2

[7] = system: Streptococcus pyogenes SPY0001 (PenS); experiment: Broad spectrum MIC, Table 17/18 column M; type: cell-based; conditions: condition M of Table 17, in µg/mL
Experimental: as §1, §2

[8] = system: Staphylococcus aureus SAU0031 (VISA); experiment: Broad spectrum MIC, Table 17/18 column G; type: cell-based; conditions: condition G of Table 17, in µg/mL
Experimental: as §1, §2

[9] = system: Streptococcus pneumoniae SPN0032 (PSSP); experiment: Broad spectrum MIC, Table 17/18 column L; type: cell-based; conditions: condition L of Table 17, in µg/mL
Experimental: as §1, §2

[10] = system: Enterococcus faecium EFM0101 (VRE, MDR); experiment: Broad spectrum MIC, Table 17/18 column A; type: cell-based; conditions: condition A of Table 17, in µg/mL
Experimental: as §1, §2

[11] = system: Staphylococcus aureus (MSSA)
How it was run: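 Broth microdilution MIC per NCCLS M7-A6 with doubling serial dilutions, in cation-adjusted Mueller-Hinton broth supplemented with 0.625 mM calcium.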

Compound: CCCCCCCCCCCCCCC(=O)NC(CC(=O)O)C(=O)NC1C(=O)N2CCCCC2C(=O)NC(C(C)C(=O)O)C(=O)NC(CC(=O)O)C(=O)NCC(=O)NC(CC(=O)O)C(=O)NCC(=O)NC(C(C)N)C(=O)NC(C(C)C)C(=O)N2CCCC2C(=O)NC1C (stereo not shown) [Compound 2, C15-Amphomycin]
- MIC, media condition H [1]: 4
- MIC, media condition I [2]: 4
- MIC, media condition B [3]: 2
- MIC, media condition C [3]: 1
- MIC, media condition D [3]: 64
- MIC, media condition J [4]: 0.125
- MIC, media condition K [5]: 0.125
- MIC, media condition E [6]: 4
- MIC, media condition F [6]: 8
- MIC, media condition M [7]: 1
- MIC, media condition G [8]: 8
- MIC, media condition L [9]: 0.5
- MIC, media condition A [10]: 4

Compound: CCCCCCCCCCCCCCCCC(=O)NC(CC(=O)O)C(=O)NC1C(=O)N2CCCCC2C(=O)NC(C(C)C(=O)O)C(=O)NC(CC(=O)O)C(=O)NCC(=O)NC(CC(=O)O)C(=O)NCC(=O)NC(C(C)N)C(=O)NC(C(C)C)C(=O)N2CCCC2C(=O)NC1C (stereo not shown) [Compound 12, C17-Amphomycin]
- MIC, media condition H [1]: 1-2
- MIC, media condition I [2]: 2
- MIC ([11]; 24 h): 1 to 2 µg/mL
- MIC, media condition B [3]: 0.5-1
- MIC, media condition C [3]: 1
- MIC, media condition D [3]: 64
- MIC, media condition J [4]: 0.25
- MIC, media condition K [5]: 0.125
- MIC, media condition E [6]: 1-2
- MIC, media condition F [6]: 32-64
- MIC, media condition M [7]: 0.5
- MIC, media condition G [8]: 4-8
- MIC, media condition L [9]: 0.25-0.5
- MIC, media condition A [10]: 0.5-1

Compound: CCCCCCCCCCCCOc1ccc(C(=O)NC(CC(=O)O)C(=O)NC2C(=O)N3CCCCC3C(=O)NC(C(C)C(=O)O)C(=O)NC(CC(=O)O)C(=O)NCC(=O)NC(CC(=O)O)C(=O)NCC(=O)NC(C(C)N)C(=O)NC(C(C)C)C(=O)N3CCCC3C(=O)NC2C)cc1 (stereo not shown) [Compound 15, CH3—(CH2)11—O-p-Ph-C(═O)-Amphomycin]
- MIC, media condition H [1]: 2-8
- MIC, media condition I [2]: 2-4
- MIC ([11]; 24 h): 2 to 4 µg/mL
- MIC, media condition B [3]: 2-4
- MIC, media condition C [3]: 1-4
- MIC, media condition D [3]: >64
- MIC, media condition J [4]: 0.125-1
- MIC, media condition K [5]: 0.125-0.5
- MIC, media condition E [6]: 2-4
- MIC, media condition F [6]: 32
- MIC, media condition M [7]: 0.5-2
- MIC, media condition G [8]: 4-8
- MIC, media condition L [9]: 0.25-1
- MIC, media condition A [10]: 2-4

Compound: CCCCCCCCCCCCCCC(=O)NC(CC(=O)O)C(=O)NC1C(=O)N2CCCCC2C(=O)NC(C(C)C(=O)O)C(=O)NC(CC(=O)O)C(=O)NCC(=O)NC(CC(=O)O)C(=O)NCC(=O)NC(C(C)NC(=O)CNC(=O)[C@@H](C)N)C(=O)NC(C(C)C)C(=O)N2CCCC2C(=O)NC1C (stereo partly drawn) [Compound 69, C15-Amphomycin-9-Gly-(D-Ala)]
- MIC, media condition H [1]: 2
- MIC, media condition I [2]: 4
- MIC ([11]; 24 h): 1 µg/mL
- MIC, media condition B [3]: 8
- MIC, media condition C [3]: 4
- MIC, media condition D [3]: >64
- MIC, media condition J [4]: 1
- MIC, media condition K [5]: 1
- MIC, media condition E [6]: 1
- MIC, media condition F [6]: 32
- MIC, media condition M [7]: 1
- MIC, media condition G [8]: 8
- MIC, media condition L [9]: 2
- MIC, media condition A [10]: 4

Compound: CCCCCCCCCCCCOc1ccc(C(=O)NC(CC(=O)O)C(=O)NC2C(=O)N3CCCCC3C(=O)NC(C(C)C(=O)O)C(=O)NC(CC(=O)O)C(=O)NCC(=O)NC(CC(=O)O)C(=O)NCC(=O)NC(C(C)NC(=O)CN)C(=O)NC(C(C)C)C(=O)N3CCCC3C(=O)NC2C)cc1 (stereo not shown) [Compound 88, CH3—(CH2)11—O-p-Ph-C(═O)-Amphomycin-9-Gly]
- MIC, media condition H [1]: 0.5-1
- MIC, media condition I [2]: 0.5-1
- MIC, media condition B [3]: 0.5-1
- MIC, media condition C [3]: 0.25-0.5
- MIC, media condition D [3]: >64
- MIC, media condition J [4]: 0.25
- MIC, media condition K [5]: 0.125
- MIC, media condition E [6]: 0.5-1
- MIC, media condition F [6]: 32-64
- MIC, media condition M [7]: 0.25-0.5
- MIC, media condition G [8]: 2-4
- MIC, media condition L [9]: 0.25
- MIC, media condition A [10]: 0.25-0.5

Compound: CCCCCCCCCCCCNC(=O)NC(CC(=O)O)C(=O)NC1C(=O)N2CCCCC2C(=O)NC(C(C)C(=O)O)C(=O)NC(CC(=O)O)C(=O)NCC(=O)NC(CC(=O)O)C(=O)NCC(=O)NC(C(C)NC(=O)CN)C(=O)NC(C(C)C)C(=O)N2CCCC2C(=O)NC1C (stereo not shown) [Compound 92, CH3—(CH2)11—NH—C(═O)-Amphomycin-9-Gly]
- MIC, media condition H [1]: 1-2
- MIC, media condition I [2]: 0.5-1
- MIC ([11]; 24 h): 0.25 to 0.5 µg/mL
- MIC, media condition B [3]: 6-16
- MIC, media condition C [3]: 2-4
- MIC, media condition D [3]: 64
- MIC, media condition J [4]: 0.25
- MIC, media condition K [5]: 0.125
- MIC, media condition E [6]: 0.25-0.5
- MIC, media condition F [6]: 8
- MIC, media condition M [7]: 0.25
- MIC, media condition G [8]: 4
- MIC, media condition L [9]: 0.25
- MIC, media condition A [10]: 1-2

The remaining lines, values ahead:

- MIC, media condition H [1]: 2-4
- MIC, media condition I [2]: 1
- MIC ([11]; 24 h): 0.5 µg/mL
- MIC, media condition B [3]: 0.5
- MIC, media condition C [3]: 0.5-1
- MIC, media condition D [3]: 64
- MIC, media condition J [4]: 0.25
- MIC, media condition K [5]: 0.125
- MIC, media condition E [6]: 0.5
- MIC, media condition F [6]: 8-16
- MIC, media condition M [7]: 0.25-0.5
- MIC, media condition G [8]: 2-4
- MIC, media condition L [9]: 0.25
- MIC, media condition A [10]: 0.5-1
Compound: CCCCCCCCCCCCCCCC(=O)NC(CC(=O)O)C(=O)NC1C(=O)N2CCCCC2C(=O)NC(C(C)C(=O)O)C(=O)NC(CC(=O)O)C(=O)NCC(=O)NC(CC(=O)O)C(=O)NCC(=O)NC(C(C)N)C(=O)NC(C(C)C)C(=O)N2CCCC2C(=O)NC1C (stereo not shown) [Compound 11, C16-Amphomycin]

- MIC, media condition H [1]: 2
- MIC, media condition I [2]: 2
- MIC ([11]; 24 h): 1 to 2 µg/mL
- MIC, media condition B [3]: 2-4
- MIC, media condition C [3]: 2
- MIC, media condition D [3]: 64
- MIC, media condition J [4]: 0.5
- MIC, media condition K [5]: 0.5
- MIC, media condition E [6]: 1-2
- MIC, media condition F [6]: 8-16
- MIC, media condition M [7]: 0.5-1
- MIC, media condition G [8]: 8
- MIC, media condition L [9]: 0.5
- MIC, media condition A [10]: 2
Compound: CCCCCCCCCCCCCCC(=O)NC(CC(=O)O)C(=O)NC1C(=O)N2CCCCC2C(=O)NC(C(C)C(=O)O)C(=O)NC(CC(=O)O)C(=O)NCC(=O)NC(CC(=O)O)C(=O)NCC(=O)NC(C(C)NC(=O)[C@H]2CCCN2)C(=O)NC(C(C)C)C(=O)N2CCCC2C(=O)NC1C (stereo partly drawn) [Compound 67, C15-Amphomycin-9-(D-Pro)]

- MIC, media condition H [1]: 2
- MIC, media condition I [2]: 1-2
- MIC ([11]; S. aureus (MSSA), CAMHB supplemented with 0.625 mM calcium, 24 hours at about 37° C., a range = compound tested multiple times): 80/0.5-1 μg/mL
- MIC, media condition B [3]: 0.5-1
- MIC, media condition C [3]: 0.5-1
- MIC, media condition D [3]: 64
- MIC, media condition J [4]: 0.125
- MIC, media condition K [5]: 0.125
- MIC, media condition E [6]: 0.5-1
- MIC, media condition F [6]: 16-32
- MIC, media condition M [7]: 0.25-0.5
- MIC, media condition G [8]: 8
- MIC, media condition L [9]: 0.25
- MIC, media condition A [10]: 0.5-1
Compound: CCCCCCCCCCCCCCCCC(=O)NC(CC(=O)O)C(=O)NC1C(=O)N2CCCCC2C(=O)NC(C(C)C(=O)O)C(=O)NC(CC(=O)O)C(=O)NCC(=O)NC(CC(=O)O)C(=O)NCC(=O)NC(C(C)NC(=O)CCN)C(=O)NC(C(C)C)C(=O)N2CCCC2C(=O)NC1C (stereo not drawn) [Compound 80, C17-Amphomycin-9-(β-Ala)]
